In the supplement of paper PMC13380429:

Legend:
Settings in all cases: 72 h
Vero E6 [1] = assay: drug sensitivity score (DSS) for viability; higher = more toxic; extreme values may be limits of the assay
HepG2 [2] = assay: as above
Caco-2 [3] = assay: as above
U2OS [4] = assay: as above
Vero E6 [5] = assay: relative viability EC50 (midpoint between 100% and the lowest measured viability); higher = less toxic
HepG2 [6] = assay: as above
Caco-2 [7] = assay: as above
U2OS [8] = assay: as above
Vero E6 [9] = assay: cell viability relative to DMSO; higher = less toxic
HepG2 [10] = assay: as above
Caco-2 [11] = assay: as above
U2OS [12] = assay: as above
Calu-3 [13] = assay: drug sensitivity score (DSS) for viability; higher = more toxic; extreme values may be limits of the assay
Calu-3 [14] = assay: cell viability relative to DMSO; higher = less toxic

With `CCOC(=O)c1ccc(NC2CCCCC2)c(N)c1` [ferrostatin-1] the drug sensitivity score (Vero E6 [1]) was 0, the drug sensitivity score (HepG2 [2]) was 0 and the drug sensitivity score (Caco-2 [3]) was 0.1. The drug sensitivity score (U2OS [4]) was 0, the “relative viability EC50” value (Vero E6 [5]) was > 10 µM and the “relative viability EC50” value (HepG2 [6]) was > 10 µM. The “relative viability EC50” value (Caco-2 [7]) was > 10 µM, the “relative viability EC50” value (U2OS [8]) was > 10 µM and the cell viability (Vero E6 [9]; 1 nM) was 97.6%. The cell viability (Vero E6 [9]; 10 nM) was 101%, the cell viability (Vero E6 [9]; 100 nM) was 94.3% and the cell viability (Vero E6 [9]; 1000 nM) was 95.1%. It also gave a cell viability (Vero E6 [9]; 10000 nM) of 100%, a cell viability (HepG2 [10]; 1 nM) of 94% and a cell viability (HepG2 [10]; 10 nM) of 108%. For the same compound, the cell viability (HepG2 [10]; 100 nM) was 97.8%, the cell viability (HepG2 [10]; 1000 nM) was 97% and the cell viability (HepG2 [10]; 10000 nM) was 113%. It also gave a cell viability (Caco-2 [11]; 1 nM) of 99.8%, a cell viability (Caco-2 [11]; 10 nM) of 99.9% and a cell viability (Caco-2 [11]; 100 nM) of 102%. The cell viability (Caco-2 [11]; 1000 nM) was 102%, the cell viability (Caco-2 [11]; 10000 nM) was 86.1% and the cell viability (U2OS [12]; 1 nM) was 97.5%. For the same compound, the cell viability (U2OS [12]; 10 nM) was 96.6%, the cell viability (U2OS [12]; 100 nM) was 98.6% and the cell viability (U2OS [12]; 1000 nM) was 98.9%. The cell viability (U2OS [12]; 10000 nM) was 96.6%.
With `CC1CCc2cc(F)cc3c(=O)c(C(=O)O)cn1c23` (stereo not drawn) [flumequine] the drug sensitivity score (Vero E6 [1]) was 0, the drug sensitivity score (HepG2 [2]) was 0 and the drug sensitivity score (Caco-2 [3]) was 0. The drug sensitivity score (U2OS [4]) was 0, the “relative viability EC50” value (Vero E6 [5]) was > 10 µM and the “relative viability EC50” value (HepG2 [6]) was > 10 µM. The “relative viability EC50” value (Caco-2 [7]) was > 10 µM, the “relative viability EC50” value (U2OS [8]) was > 10 µM and the cell viability (Vero E6 [9]; 1 nM) was 103%. For the same compound, the cell viability (Vero E6 [9]; 10 nM) was 94.7%, the cell viability (Vero E6 [9]; 100 nM) was 107% and the cell viability (Vero E6 [9]; 1000 nM) was 108%. It also gave a cell viability (Vero E6 [9]; 10000 nM) of 92.1%, a cell viability (HepG2 [10]; 1 nM) of 95.3% and a cell viability (HepG2 [10]; 10 nM) of 97.7%. For the same compound, the cell viability (HepG2 [10]; 100 nM) was 89.4%, the cell viability (HepG2 [10]; 1000 nM) was 96.4% and the cell viability (HepG2 [10]; 10000 nM) was 92.7%. It also gave a cell viability (Caco-2 [11]; 1 nM) of 91%, a cell viability (Caco-2 [11]; 10 nM) of 75.1% and a cell viability (Caco-2 [11]; 100 nM) of 96.5%. For the same compound, the cell viability (Caco-2 [11]; 1000 nM) was 112%, the cell viability (Caco-2 [11]; 10000 nM) was 121% and the cell viability (U2OS [12]; 1 nM) was 98.1%. The cell viability (U2OS [12]; 10 nM) was 98.3%, the cell viability (U2OS [12]; 100 nM) was 102% and the cell viability (U2OS [12]; 1000 nM) was 97.9%. The cell viability (U2OS [12]; 10000 nM) was 104%.
With `C/C(=C\c1csc(C)n1)[C@@H]1C[C@@H]2O[C@]2(C)CCC[C@H](C)[C@H](O)[C@@H](C)C(=O)C(C)(C)[C@@H](O)CC(=O)N1` [ixabepilone] the drug sensitivity score (Vero E6 [1]) was 9.1, the drug sensitivity score (Calu-3 [13]) was 7.2 and the drug sensitivity score (HepG2 [2]) was 21.7. The drug sensitivity score (Caco-2 [3]) was 13.6, the drug sensitivity score (U2OS [4]) was 10.9 and the “relative viability EC50” value (Vero E6 [5]) was 0.493 µM. The “relative viability EC50” value (HepG2 [6]) was 0.0721 µM, the “relative viability EC50” value (Caco-2 [7]) was 0.0664 µM and the “relative viability EC50” value (U2OS [8]) was 0.556 µM. For the same compound, the cell viability (Vero E6 [9]; 1 nM) was 108%, the cell viability (Vero E6 [9]; 10 nM) was 108% and the cell viability (Vero E6 [9]; 100 nM) was 84.6%. The cell viability (Vero E6 [9]; 1000 nM) was 60.2%, the cell viability (Vero E6 [9]; 10000 nM) was 36.5% and the cell viability (Calu-3 [14]; 1 nM) was 108%. It also gave a cell viability (Calu-3 [14]; 10 nM) of 108%, a cell viability (Calu-3 [14]; 100 nM) of 88.1% and a cell viability (Calu-3 [14]; 1000 nM) of 67.2%. For the same compound, the cell viability (Calu-3 [14]; 10000 nM) was 60.8%, the cell viability (HepG2 [10]; 1 nM) was 107% and the cell viability (HepG2 [10]; 10 nM) was 103%. It also gave a cell viability (HepG2 [10]; 100 nM) of 43.6%, a cell viability (HepG2 [10]; 1000 nM) of 33.6% and a cell viability (HepG2 [10]; 10000 nM) of 17.3%. For the same compound, the cell viability (Caco-2 [11]; 1 nM) was 101%, the cell viability (Caco-2 [11]; 10 nM) was 98.4% and the cell viability (Caco-2 [11]; 100 nM) was 65.2%. The cell viability (Caco-2 [11]; 1000 nM) was 48.8%, the cell viability (Caco-2 [11]; 10000 nM) was 49.2% and the cell viability (U2OS [12]; 1 nM) was 99.7%. For the same compound, the cell viability (U2OS [12]; 10 nM) was 99.3%, the cell viability (U2OS [12]; 100 nM) was 101% and the cell viability (U2OS [12]; 1000 nM) was 41.3%. For the same compound, the cell viability (U2OS [12]; 10000 nM) was 28%.
`C=C1/C(=C\C=C2/CCC[C@]3(C)[C@@H]([C@H](C)OCCC(C)(C)O)CC[C@@H]23)C[C@@H](O)C[C@@H]1O` [maxacalcitol] showed a drug sensitivity score (Vero E6 [1]) of 0, a drug sensitivity score (HepG2 [2]) of 0 and a drug sensitivity score (Caco-2 [3]) of 0. The drug sensitivity score (U2OS [4]) was 0, the “relative viability EC50” value (Vero E6 [5]) was > 10 µM and the “relative viability EC50” value (HepG2 [6]) was > 10 µM. The “relative viability EC50” value (Caco-2 [7]) was > 10 µM, the “relative viability EC50” value (U2OS [8]) was > 10 µM and the cell viability (Vero E6 [9]; 1 nM) was 109%. The cell viability (Vero E6 [9]; 10 nM) was 105%, the cell viability (Vero E6 [9]; 100 nM) was 102% and the cell viability (Vero E6 [9]; 1000 nM) was 100%. The cell viability (Vero E6 [9]; 10000 nM) was 94.6%, the cell viability (HepG2 [10]; 1 nM) was 105% and the cell viability (HepG2 [10]; 10 nM) was 99.3%. For the same compound, the cell viability (HepG2 [10]; 100 nM) was 98.3%, the cell viability (HepG2 [10]; 1000 nM) was 91.5% and the cell viability (HepG2 [10]; 10000 nM) was 98.5%. It also gave a cell viability (Caco-2 [11]; 1 nM) of 91.9%, a cell viability (Caco-2 [11]; 10 nM) of 91.3% and a cell viability (Caco-2 [11]; 100 nM) of 94.1%. For the same compound, the cell viability (Caco-2 [11]; 1000 nM) was 87.8%, the cell viability (Caco-2 [11]; 10000 nM) was 101% and the cell viability (U2OS [12]; 1 nM) was 102%. For the same compound, the cell viability (U2OS [12]; 10 nM) was 103%, the cell viability (U2OS [12]; 100 nM) was 93.5% and the cell viability (U2OS [12]; 1000 nM) was 91.6%. It also gave a cell viability (U2OS [12]; 10000 nM) of 97.4%.
